US20020004495A1, “Methods for stimulating bone formation” (priority 1998, published 2002)

How the values were obtained:
[1] = tested on: EP4 mRNA in tibiae and calvariae; assay: EP4 mRNA in rat bone tissue after systemic administration (Northern blot); assay type: in vivo
Description: For mRNA localization experiments, 5-week old Sprague-Dawley rats (Charles River) are euthanized by CO2, their tibiae and calvariae are excised, cleaned of soft tissues and frozen immediately in liquid nitrogen. For EP4 regulation experiments, 6-week old rats are given a single injection of either vehicle (7% ethanol in sterile water) or an anabolic dose of PGE2 (Cayman Chemical, Ann Arbor, Mich.), 3-6 mg/kg in the same vehicle) intraperitoneally. Animals are euthanized at several time points post-injection and their tibiae and calvariae, as well as samples from lung and kidney tissues are frozen in liquid nitrogen. Total RNA is extracted from the tibial metaphysis or diaphysis and calvaria using a guanidinium isothiocyanate-phenol-chloroform method after pulverizing frozen bone samples by a tissue homogenizer. See P. Chomczynski et al., Single-step method of RNA isolation by acid guanidium thiocyanate-phenol-chloroform extraction., Analyt Biochem, 162, 156-159 (1987), which is incorporated by reference herein in its entirety. RNA samples ([…]) are separated on 0.9% agarose/formaldehyde gels and transferred onto nylon membranes (Boehringer Mannheim, Germany). Membranes are prehybridized in Hybrisol I (Oncor, Gaithersburg, Md.) and 0.5 mg/ml sonicated salmon sperm DNA (Boehringer) at 42° C. for 3 hours and are hybridized at 42° C. with rat EP2 and mouse EP4 cDNA probes labeled with [^32P]-dCTP (Amersham, Buckinghamshire, UK) by random priming using the rediprime kit (Amersham). After hybridization, membranes are washed 4 times in 2×SSC+0.1% SDS at room temperature for a total of 1 hour and once with 0.2×SSC+0.1% SDS at 55° C. for 1 hour and then exposed to Kodak XAR 2 film at −70° C. using intensifying screens. After developing the films, bound probes are removed twice with 0.1% SDS at 80° C. and membranes are hybridized with a human GAPDH (Glyceraldehyde 3-Phosphate Dehydrogenase) cDNA probe (purchased from Clontech, Palo Alto, Calif.) for loading control. To examine if PGE2 regulates EP4 mRNA levels in vivo in bone tissue, […] male rats are injected with PGE2 (3-6 mg/Kg).

EP4 mRNA in RCT-3 cells = EP4 mRNA in RCT-3 cells (Northern blot); assay type: cell-based, rat
Description: (§1) RCT-1 and RCT-3 are clonal cell lines immortalized by SV-40 large T antigen from cells released from fetal rat calvair by a cmbination collagenase/hyaluronidase digestion. RCT-1 cells, derived from cells released during the first 10 minutes of digestion (fraction I), are cultured in RPMI 1640 medium (BRL) with 10% fetal bovine serum and 0.4 mg/ml G418 (BRL). […] RCT-3 cells, immortalized from osteoblast-enriched fraction III cells, are cultured in F-12 medium (BRL) with 5% Fetal bovine serum and 0.4 mg/ml G418. TRAB-11 cells are also immortalized by SV40 large T antigen from adult rat tibia and are cultured in RPMI 1640 medium with 10% FBS and 0.4 mg/ml G418. ROS 17/2.8 rat osteosarcoma cells are cultured in F-12 containing 5% FBS. Osteoblast-enriched (fraction III) primary fetal rat calvaria cells are obtained by collagenase/hyaluronidase digestion of calvariae of 19 day-old rat fetuses. See Rodan et al., Growth stimulation of rat calvaria osteoblastic cells by acidic FGF, Endocrinology, 121, 1919-1923 (1987), which is incorporated by reference herein in its entirety. Cells are released during 30-50 minutes digestion (fraction III) and are cultured in F-12 medium containing 5% FBS. Total RNA is extracted from the tibial metaphysis or diaphysis and calvaria using a guanidinium isothiocyanate-phenol-chloroform method after pulverizing frozen bone samples by a tissue homogenizer. […]

[2] = tested on: ROS 17/2.8 rat osteosarcoma cells; assay: Intracellular cAMP in ROS 17/2.8 cells; assay type: cell-based
Description: as §1, with “FBS.” for “FBS. Total RNA is extracted from the tibial metaphysis or diaphysis and calvaria using a guanidinium isothiocyanate-phenol-chloroform method after pulverizing frozen bone samples by a tissue homogenizer.”

[3] = tested on: EP4 expression in bone marrow cells; assay: In situ hybridization of EP4 in rat tibia; assay type: in vivo; conditions: rats, single anabolic dose, tibial metaphysis
Description: For mRNA localization experiments, 5-week old Sprague-Dawley rats (Charles River) are euthanized by CO2, their tibiae and calvariae are excised, cleaned of soft tissues and frozen immediately in liquid nitrogen. For EP4 regulation experiments, 6-week old rats are given a single injection of either vehicle (7% ethanol in sterile water) or an anabolic dose of PGE2 (Cayman Chemical, Ann Arbor, Mich.), 3-6 mg/kg in the same vehicle) intraperitoneally. Animals are euthanized at several time points post-injection and their tibiae and calvariae, as well as samples from lung and kidney tissues are frozen in liquid nitrogen.
Frozen tibiae are sectioned coronally at […] thickness and sections are mounted on charged slides (Probe On Plus, Fisher Scientific, Springfield, N.J.) and are kept at −70° C. until hybridization. cRNA probes are labeled with ^35S-UTPgS (ICN, Costa Mesa, Calif.) using a Riboprobe II kit (Promega Madison, Wis.). Hybridization is performed overnight at 50° C. […]
In situ hybridization is used in order to localize cells expressing EP4 in bone In control experiment (vehicle-injected) rats, low expression of EP4 is detected in bone marrow cells. […]

[4] = tested on: EP4 mRNA in RP-1 periosteal cells; assay: EP4 mRNA in RP-1 periosteal cells (Northern blot); assay type: cell-based, rat; conditions: 10^-6 M
Description: (§2) RP-1 periosteal cells are spontaneously immortalized from primary cultures of periosteal cells from tibae of 4-week old Sprague-Dawley rats and are cultured in DMEM (BRL, Gaithersburg, Md.) with 10% fetal bovine serum (JRH Biosciences, Lenexa, Kans.). […] Total RNA is extracted from the tibial metaphysis or diaphysis and calvaria using a guanidinium isothiocyanate-phenol-chloroform method after pulverizing frozen bone samples by a tissue homogenizer. See P. Chomczynski et al., Single-step method of RNA isolation by acid guanidium thiocyanate-phenol-chloroform extraction., Analyt Biochem, 162, 156-159 (1987), which is incorporated by reference herein in its entirety. RNA samples ([…]) are separated on 0.9% agarose/formaldehyde gels and transferred onto nylon membranes (Boehringer Mannheim, Germany). Membranes are prehybridized in Hybrisol I (Oncor, Gaithersburg, Md.) and 0.5 mg/ml sonicated salmon sperm DNA (Boehringer) at 42° C. for 3 hours and are hybridized at 42° C. with rat EP2 and mouse EP4 cDNA probes labeled with [^32P]-dCTP (Amersham, Buckinghamshire, UK) by random priming using the rediprime kit (Amersham). After hybridization, membranes are washed 4 times in 2×SSC+0.1% SDS at room temperature for a total of 1 hour and once with 0.2×SSC+0.1% SDS at 55° C. for 1 hour and then exposed to Kodak XAR 2 film at −70° C. using intensifying screens. […]

TRAB-11 cells = assay: Intracellular cAMP in TRAB-11 cells; assay type: cell-based, rat
Description: as §1, with “FBS.” for “FBS. Total RNA is extracted from the tibial metaphysis or diaphysis and calvaria using a guanidinium isothiocyanate-phenol-chloroform method after pulverizing frozen bone samples by a tissue homogenizer.”

EP2 mRNA in RP-1 cells = EP2 mRNA in RP-1 cells (Northern blot); assay type: cell-based, rat
Description: as §2

EP2 mRNA in bone tissue = assay: EP2 mRNA in rat bone tissue after systemic administration (Northern blot); assay type: in vivo; conditions: rats, 3-6 mg/Kg
Description: For mRNA localization experiments, 5-week old Sprague-Dawley rats (Charles River) are euthanized by CO2, their tibiae and calvariae are excised, cleaned of soft tissues and frozen immediately in liquid nitrogen. For EP4 regulation experiments, 6-week old rats are given a single injection of either vehicle (7% ethanol in sterile water) or an anabolic dose of PGE2 (Cayman Chemical, Ann Arbor, Mich.), 3-6 mg/kg in the same vehicle) intraperitoneally. Animals are euthanized at several time points post-injection and their tibiae and calvariae, as well as samples from lung and kidney tissues are frozen in liquid nitrogen. Total RNA is extracted from the tibial metaphysis or diaphysis and calvaria using a guanidinium isothiocyanate-phenol-chloroform method after pulverizing frozen bone samples by a tissue homogenizer. See P. Chomczynski et al., Single-step method of RNA isolation by acid guanidium thiocyanate-phenol-chloroform extraction., Analyt Biochem, 162, 156-159 (1987), which is incorporated by reference herein in its entirety. RNA samples ([…]) are separated on 0.9% agarose/formaldehyde gels and transferred onto nylon membranes (Boehringer Mannheim, Germany). […]

RCT-3 cells = assay: Intracellular cAMP in RCT-3 cells; assay type: cell-based, rat
Description: as §1, with “FBS.” for “FBS. Total RNA is extracted from the tibial metaphysis or diaphysis and calvaria using a guanidinium isothiocyanate-phenol-chloroform method after pulverizing frozen bone samples by a tissue homogenizer.”

CCCCC[C@H](O)/C=C/[C@H]1[C@H](O)CC(=O)[C@@H]1C/C=C\CCCC(=O)O [PGE2, prostaglandin E2] was tested, and the “effect on EP4 mRNA levels in the tibial diaphysis” value ([1]; rats, 3-6 mg/Kg) was “rapidly increased”, the “time of peak of EP4 mRNA levels in the tibial diaphysis after injection” value ([1]; rats, 3-6 mg/Kg) was 2 h and the “effect on expression of EP4 in tibiae and calvariae” value ([1]; young adult rats, 3-6 mg/kg) was “upregulates”. The “time of peak of EP4 expression in tibiae and calvariae” value ([1]; young adult rats, 3-6 mg/kg) was 1 to 2 h, the “effect on EP4 mRNA levels” value (EP4 mRNA in RCT-3 cells) was “no effect” and the “effect on intracellular cAMP” value [2] was “no effect”. The “expression of EP4 in bone marrow cells (in situ hybridization)” value [3] was “increasesd the expression”, the “effect on EP4 mRNA levels” value [4] was “rapidly increases” and the “time of peak of EP4 mRNA levels after treatment” value [4] was 2 h. The “effect on intracellular cAMP” value (TRAB-11 cells) was “markedly induced”, the “induction of EP2 mRNA” value (EP2 mRNA in RP-1 cells) was “does not induce” and the “induction of EP2 mRNA in bone tissue” value (EP2 mRNA in bone tissue) was “does not induce”. The “effect on intracellular cAMP” value (RCT-3 cells) was “markedly induced”.
